In BindingDB's records for doi:10.1021/ml2002482 (2012):

Assay: Inhibition of human recombinant ICAM-1 adhesion into human Jurkat cells after 1 hr

With `CS(=O)(=O)c1cccc(C[C@H](NC(=O)c2c(Cl)cc3c(c2Cl)CCN(C(=O)c2ccc4ccoc4c2)C3)C(=O)O)c1` as the compound, how does the IC50 read?
The IC50 was 2.98 nM.
